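Five concentrations, 48 hours, 96-well plates. GI50 marks 50% less growth.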 Active and inactive are the calls of the source. Cut-off read from the data, not from the text of the source: active = GI50 up to about 1.1 µM and inactive = higher.
What was measured:
Assay in all cases: NCI tumour cell line growth inhibition, 48 h
[1] = system: LOX IMVI
[2] = system: OVCAR-4
[3] = system: DU-145
[4] = system: CAKI-1
[5] = system: RXF 393
[6] = system: 786-0
[7] = system: OVCAR-5
[8] = system: MDA-N
[9] = system: OVCAR-3
[10] = system: SK-OV-3
[11] = system: COLO 205
[12] = system: K562
[13] = system: SF-295
[14] = system: OVCAR-8
[15] = system: NCI-H23
[16] = system: HOP-62
[17] = system: BT-549
[18] = system: HL-60
[19] = system: SNB-19
[20] = system: Hs-578T
[21] = system: A498
[22] = system: UO-31
[23] = system: A549
[24] = system: RPMI-8226
[25] = system: SF-539
[26] = system: NCI-H522
[27] = system: UACC-62
[28] = system: SW-620
[29] = system: ACHN
[30] = system: MCF7
[31] = system: HCT-15
[32] = system: Malme-3M
[33] = system: SK-MEL-5
[34] = system: SF-268
[35] = system: EKVX
[36] = system: SN12C
[37] = system: SR
[38] = system: CCRF-CEM
[39] = system: NCI-H226
[40] = system: HCC 2998
[41] = system: NCI-H460
[42] = system: T47D
[43] = system: HOP-92
[44] = system: TK-10
[45] = system: SK-MEL-28
[46] = system: SK-MEL-2
[47] = system: IGROV-1
[48] = system: KM12
[49] = system: PC-3
[50] = system: U-251
[51] = system: UACC-257
[52] = system: SNB-75
[53] = system: NCI/ADR-RES
[54] = system: M14
[55] = system: MDA-MB-435
[56] = system: MDA-MB-231
[57] = system: HT-29
[58] = system: HCT-116

`O=C1c2cccnc2C(=O)C2C3C=CC(C3)C12` (stereo not drawn) was tested, and the GI50 [1] was 3.66 µM (inactive), the GI50 [2] was 5.01 µM (inactive) and the GI50 [3] was 6.92 µM (inactive). The GI50 [4] was 14.4 µM (inactive), the GI50 [5] was 2.69 µM (inactive) and the GI50 [6] was 11.1 µM (inactive). For the same molecule, the GI50 [7] was 18.3 µM (inactive), the GI50 [8] was 3.61 µM (inactive) and the GI50 [9] was 13.5 µM (inactive). For the same molecule, the GI50 [10] was 18.3 µM (inactive), the GI50 [11] was 13.3 µM (inactive) and the GI50 [12] was 2.94 µM (inactive). The GI50 [13] was 12.6 µM (inactive), the GI50 [14] was 5.48 µM (inactive) and the GI50 [15] was 12.1 µM (inactive). For the same molecule, the GI50 [16] was 6.68 µM (inactive), the GI50 [17] was 11.5 µM (inactive) and the GI50 [18] was 1.74 µM (inactive). The GI50 [19] was 15 µM (inactive), the GI50 [20] was 9.66 µM (inactive) and the GI50 [21] was 21.2 µM (inactive). For the same molecule, the GI50 [22] was 11.8 µM (inactive), the GI50 [23] was 12.4 µM (inactive) and the GI50 [24] was 2.49 µM (inactive). For the same molecule, the GI50 [25] was 2.4 µM (inactive), the GI50 [26] was 3.27 µM (inactive) and the GI50 [27] was 3.37 µM (inactive). The GI50 [28] was 4.41 µM (inactive), the GI50 [29] was 7.53 µM (inactive) and the GI50 [30] was 3.52 µM (inactive). For the same molecule, the GI50 [31] was 12 µM, the GI50 [32] was 15.1 µM (inactive) and the GI50 [33] was 10.8 µM (inactive). The GI50 [34] was 10.2 µM (inactive), the GI50 [35] was 13.4 µM (inactive) and the GI50 [36] was 12.8 µM (inactive). For the same molecule, the GI50 [37] was 2.11 µM (inactive), the GI50 [38] was 1.18 µM (inactive) and the GI50 [39] was 13 µM (inactive). For the same molecule, the GI50 [40] was 15.8 µM (inactive), the GI50 [41] was 3.49 µM (inactive) and the GI50 [42] was 3.01 µM (inactive). For the same molecule, the GI50 [43] was 12.9 µM (inactive), the GI50 [44] was 18 µM (inactive) and the GI50 [45] was 15.2 µM (inactive). The GI50 [46] was 5.08 µM (inactive), the GI50 [47] was 10.6 µM (inactive) and the GI50 [48] was 14.5 µM (inactive). For the same molecule, the GI50 [49] was 10.2 µM (inactive), the GI50 [50] was 4.23 µM (inactive) and the GI50 [51] was 13.5 µM (inactive). For the same molecule, the GI50 [52] was 12.6 µM (inactive), the GI50 [53] was 4.52 µM (inactive) and the GI50 [54] was 13.3 µM (inactive). For the same molecule, the GI50 [55] was 2.25 µM (inactive), the GI50 [56] was 2.78 µM (inactive) and the GI50 [57] was 27.2 µM (inactive). For the same molecule, the GI50 [58] was 3.85 µM (inactive).

Source: ChEMBL document CHEMBL1201862, “PubChem BioAssay data set” (2004)
